In patent publication US20250250252A1, “PIPERIDINYLBENZONITRILE DERIVATIVES AS INHIBITORS OF GLUTAMINYL-PEPTIDE CYCLOTRANSFERASE AND GLUTAMINYL-PEPTIDE CYCLOTRANSFERASE LIKE PROTEIN” (Boehringer Ingelheim International GmbH, priority 2024, published 2025):
Where two headings read alike, the source gives them in different places.

Assays:
CACO-2 cells = assay: Assay C: Permeability in CACO-2 cells; format: in vitro ADME; settings: pair comparison without/with 4-fluoropiperidyl
Experimental: (§1) Caco-2 cells (1-2×10^5 cells/1 cm^2 area) are seeded on filter inserts (Costar transwell polycarbonate or PET filters, 0.4 μm pore size) and cultured (DMEM) for 10 to 25 days. Compounds are dissolved in appropriate solvent (like DMSO, 1-20 mM stock solutions). […] The transport solution (TL) is applied to the apical or basolateral donor side for measuring A-B or B-A permeability (3 filter replicates), respectively. Samples are collected at the start and end of experiment from the donor and at various time intervals for up to 2 hours also from the receiver side for concentration measurement by HPLC-MS/MS or scintillation counting. Sampled receiver volumes are replaced with fresh receiver solution.
(§2) Efflux ratio (ER)=permeability B-A/permeability A-B

[1] = tested on: SIRPα signalling induced by Raji cells; assay: Assay B: SIRPα signalling assay using Raji cells; format: cell-based; settings: Homo sapiens, read-out: Inhibition of SIRPα signalling induced by Raji cells: IC50
Experimental: Bioassay reagent 1 of the PathHunter Bioassay detection kit (DiscoverX 93-0001) was added to each well of the plate using a multichannel pipette followed by a 15 min incubation at room temperature. Afterwards bioassay reagent 2 was added followed by 60 min incubation at room temperature (incubation in the dark).
The analysis of the data was performed using the luminescence signal generated by betagalactosidase in the PathHunter reporter cell line. The luminescence measurement was done using a Pherastar Multi-Mode Reader.

[2] = tested on: SIRPα signalling induced by A549 cells; assay: Assay B: SIRPα signalling assay using A549 cells; format: cell-based; settings: Homo sapiens, read-out: Inhibition of SIRPα signalling induced by A549 cells: IC50
Experimental: Two cell types are independently used: the Raji cell line (lymphoblast-like human cell line derived from B lymphocytes from a Burkitt's lymphoma patient in 1963) and A549 cells (adenocarcinomic human alveolar basal epithelial cells).
Test compounds were dissolved in 100% DMSO and serially diluted into a white 384-well microtiter cell culture plate (PerkinElmer #60076780 in case of Raji assay; PDL-coated plates Greiner #781945 in case of A549 assay). 5000 Raji cells (ATCC #CC86) or 5000 A549 cells (ATCC #CCL-185) in Assay Complete Cell Plating reagent 30 (DiscoverX 93-0563R30B) were added per well. The assay plate was incubated for 48 h at 37° C., 95% humidity and 5% CO2. 15000 reporter cells (Jurkat PathHunter SIRPαV1, DiscoverX #93-1135C19) were added to each well, and the plate was incubated for 5 h at 37° C., 95% humidity and 5% CO2. Bioassay reagent 1 of the PathHunter Bioassay detection kit (DiscoverX 93-0001) was added to each well of the plate using a multichannel pipette followed by a 15 min incubation at room temperature. Afterwards bioassay reagent 2 was added followed by 60 min incubation at room temperature (incubation in the dark).
The analysis of the data was performed using the luminescence signal generated by betagalactosidase in the PathHunter reporter cell line. The luminescence measurement was done using a Pherastar Multi-Mode Reader. Dose-response curves & IC50 data were calculated with 4-parameter sigmoidal dose response formula.

[3] = Assay C: Permeability in CACO-2 cells; format: in vitro ADME; settings: human; for efflux ratio: Caco-2, pH 7.2
Experimental: as §1, §2

CYP3A4 mRNA = assay: Assay D: CYP induction screening assay in primary human hepatocytes; format: in vitro ADME; settings: 48 h
Experimental: Cryopreserved plateable human hepatocytes (single donor, BioIVT) were thawed and plated in Collagen-I coated 96-well-plates at a cell density of 0.07 million cells per well.
After a 6 h attachment period, the seeding medium was replaced by serum-free William's medium E supplemented with Matrigel (0.25 mg/ml) and allowed to recover overnight. 24 h post-seeding, serum-free Williams E medium containing the test compound at a final concentration of 10 μM and a final DMSO content of 0.1% and 0.1% DMSO (solvents treated control), respectively, was added to predefined wells. Exposure solutions were renewed after 24 h.
After 48 h of treatment in total, the effect of the test compounds on CYP3A4 mRNA expression was assessed using the QuantiGene Plex Gene Expression Assay. Hepatocytes were lysed and total RNA was extracted using the QuantiGene Sample Processing Kit according to the instructions of the manufacturer.
mRNA quantification was conducted using a customized QuantiGene Plex Panel to analyse CYP3A4 and the housekeeper genes RPL32, EIF4E2 and GUSB according to the instructions of the manufacturer and measured on a Luminex™ instrument. Signal was reported as median fluorescence intensity (MFI), which is proportional to the number of target RNA molecules present in the sample.
For calculation of CYP3A4 mRNA induction, the signal for CYP3A4 was normalized against the geometric mean of the signal obtained for the housekeeper genes for hepatocytes exposed to test compounds in relation to solvent-treated samples according to the following equation:
n-fold induction=(MFI CYP3A4 (treated)/Xgeo MFI (RPL32,EIF4E2,GUSB))/(MFI CYP3A4 (solvent control)/Xgeo MFI (RPL32,EIF4E2,GUSB))

murine hepatocytes = assay: Assay E: Stability in murine hepatocytes; format: in vitro ADME, mouse; settings: 1 μM
Experimental: The metabolic degradation of the test compound is assayed in a murine hepatocyte suspension.
Murine hepatocytes (typically cryopreserved) are incubated in an appropriate buffer system (e.g. Dulbecco's modified eagle medium plus 3.5 μg glucagon/500 mL, 2.5 mg insulin/500 mL and 3.75 mg/500 mL hydrocortison) containing 5% species serum.
Following a (typically) 30 min preincubation in an incubator (37° C., 10% CO2) 5 μl of test compound solution (80 μM; from 2 mM in DMSO stock solution diluted 1:25 with medium) are added into 395 μl hepatocyte suspension (cell density in the range 0.25-5 Mio cells/mL, typically 1 Mio cells/mL; final concentration of test compound 1 μM, final DMSO concentration 0.05%).
The cells are incubated for six hours (incubator, orbital shaker) and samples (2 μl) are taken at 0, 0.5, 1, 2, 4 and 6 hours. Samples are transferred into acetonitrile and pelleted by centrifugation (5 min). The supernatant is transferred to a new 96-deepwell plate, evaporated under nitrogen and resuspended.
CLint is calculated as follows CL_[…]=Dose/AUC=(C0/CD)/(AUD+clast/k)×1000/60. C0: initial concentration in the incubation [μM], CD: cell density of vital cells [10e6cells/mL], AUD: area under the data [μM×h], clast: concentration of last data point [μM], k: slope of the regression line for parent decline [h−1].
The calculated in vitro hepatic intrinsic clearance can be scaled up to the intrinsic in vivo hepatic Clearance and used to predict hepatic in vivo blood clearance (CL) by the use of a liver model (well stirred model).
CL_[…]_INVIVO[ml/min/kg]=(CL_[…][μL/min/10e6cells]×hepatocellularity[10e6cells/g liver]×liver factor[g/kg bodyweight])/1000
CL[ml/min/kg]=CL_[…]_INVIVO[ml/min/kg]×hepatic blood flow[ml/min/kg]/(CL_[…]_INVIVO[ml/min/kg]+hepatic blood flow[ml/min/kg])
Hepatocellularity,mouse:120×10e6cells/g liver
Liver factor,mouse:55 g/kg bodyweight
Blood flow,mouse:90 ml/(min×kg)

[4] = pair comparison without/with 4-fluoropiperidyl, read-out: Efflux ratio (BA/AB)

SMILES: Cn1cnnc1C1CCN(c2c(C#N)cc(C(F)(F)F)cc2-c2ccc(F)nc2)CC1 [Example 70 in WO 2024/020517]
- CACO2 Perm. (CACO-2 cells): 9.0 10^−6 cm/sec

SMILES: Cn1cnnc1C1(F)CCN(c2c(C#N)cccc2-c2cnc3nn(C(C)(C)C)cc3c2)CC1 [Example 62 in EP 22216126.7]
- CACO2 Perm. (CACO-2 cells): 4.9 10^−6 cm/sec

SMILES: Cn1cnnc1C1(F)CCN(c2c(-c3ccc(F)nc3)ccnc2C#N)CC1 [Example 10 in EP 22188580.9]
- CACO2 Perm. (CACO-2 cells): 11.0 10^−6 cm/sec

SMILES: Cn1cnnc1C1CCN(c2c(-c3cnc4nn(C(C)(C)C)cc4c3)ccc(C(F)(F)F)c2C#N)CC1 [Example 32 in EP 23161417.3]
- CACO2 Perm. (CACO-2 cells): 0.2 10^−6 cm/sec

SMILES: Cn1cnnc1C1(F)CCN(c2c(C#N)cccc2-c2ccc(F)nc2)CC1 [Example 56 in EP 23161417.3]
- CACO2 Perm. (CACO-2 cells): 50.0 10^−6 cm/sec

SMILES: Cn1cnnc1C1(F)CCN(c2c(C#N)cc(F)cc2-c2ccc(F)nc2)CC1 [Example 6 in EP 23161417.3]
- CACO2 Perm. (CACO-2 cells): 44.0 10^−6 cm/sec

SMILES: Cn1cncc1C1CCN(c2c(C#N)cccc2-c2ccc(F)nc2)CC1 [QP5038, reference compound]
- IC50 [1]: 21 nM
- IC50 [2]: 6 nM
- efflux ratio ([3]; Assay C, permeability B-A/permeability A-B, read-out: Efflux Ratio): 0.8
- Papp A→B ([3]; pH 7.2, Assay C, CACO-2 cells): 61 ×10⁻⁶ cm/s
- n-fold induction of CYP3A4 at 10 μM (CYP3A4 mRNA): 58.5 n-fold
- Mouse Hepatocyte Stability QH (murine hepatocytes): 97%

SMILES: Cn1cnnc1C1(F)CCN(c2c(C#N)ccnc2-c2ccc(F)nc2)CC1 [Example 1 in EP 22188580.9]
- CACO2 Perm. (CACO-2 cells): 28.0 10^−6 cm/sec

SMILES: Cn1cnnc1C1CCN(c2c(C#N)cc(F)cc2-c2ccc(F)nc2)CC1 [Example 130 in WO 2024/020517]
- CACO2 Perm. (CACO-2 cells): 24.0 10^−6 cm/sec

SMILES: Cn1cnnc1C1CCN(c2c(C#N)cc(C(F)(F)F)nc2-c2cnc3nn(C(C)(C)C)c(C(F)(F)F)c3c2)CC1 [Example 13 in EP 23189886.7]
- efflux ratio [3, 4]: 5.7
- CACO2 Perm. (CACO-2 cells): 3.7 10^−6 cm/sec

SMILES: Cn1cnnc1C1CCN(c2c(C#N)cc(Cl)nc2-c2ccc(F)nc2)CC1 [Example 18 in WO 2024/020517]
- efflux ratio [3, 4]: 3.3
- CACO2 Perm. (CACO-2 cells): 23.0 10^−6 cm/sec

SMILES: Cn1cnnc1C1CCN(c2c(-c3ccc(F)nc3)ccnc2C#N)CC1 [Example 132 in WO 2024/020517]
- CACO2 Perm. (CACO-2 cells): 1.8 10^−6 cm/sec

SMILES: Cn1cnnc1C1CCN(c2c(C#N)cc(C(F)(F)F)nc2-c2cnc3nn(C(C)(C)C)c(Cl)c3c2)CC1
- efflux ratio [3, 4]: 36.4
- CACO2 Perm. (CACO-2 cells): 1.0 10^−6 cm/sec

SMILES: Cn1cnnc1C1(F)CCN(c2c(C#N)cc(C(F)(F)F)nc2-c2cnc3nn(C(C)(C)C)c(Cl)c3c2)CC1 [Example 3 in EP 23189886.7]
- efflux ratio [3, 4]: 1
- CACO2 Perm. (CACO-2 cells): 47.0 10^−6 cm/sec

SMILES: Cn1cnnc1C1(F)CCN(c2c(C#N)cccc2-c2ccnnc2)CC1 [Example 52 in EP 22216126.7]
- CACO2 Perm. (CACO-2 cells): 15.0 10^−6 cm/sec

SMILES: Cn1cnnc1C1CCN(c2c(C#N)cccc2-c2ccnnc2)CC1 [Example 11 in WO 2024/020517]
- efflux ratio [3, 4]: 28.1
- CACO2 Perm. (CACO-2 cells): 0.3 10^−6 cm/sec

SMILES: Cn1cnnc1C1(F)CCN(c2c(C#N)cc(C(F)(F)F)cc2-c2ccc(F)nc2)CC1 [Example 4 in EP 23161417.3]
- CACO2 Perm. (CACO-2 cells): 40.5 10^−6 cm/sec

SMILES: Cn1cnnc1C1CCN(c2c(C#N)cc(F)cc2-c2cnc3nn(C(C)(C)C)c(C(F)(F)F)c3c2)CC1
- efflux ratio [3, 4]: 5.7
- CACO2 Perm. (CACO-2 cells): 17.0 10^−6 cm/sec

SMILES: Cn1cnnc1C1(F)CCN(c2c(C#N)cc(Cl)nc2-c2ccc(F)nc2)CC1 [Example 18 in EP 23161417.3]
- efflux ratio [3, 4]: 1
- CACO2 Perm. (CACO-2 cells): 66.0 10^−6 cm/sec

SMILES: Cn1cnnc1C1(F)CCN(c2c(-c3cnc4nn(C(C)(C)C)cc4c3)ccc(C(F)(F)F)c2C#N)CC1 [Example 30 in EP 23161417.3]
- CACO2 Perm. (CACO-2 cells): 1.7 10^−6 cm/sec

SMILES: Cn1cnnc1C1CCN(c2c(C#N)cc(Cl)cc2-c2cnc3nn(C(C)(C)C)cc3c2)CC1 [Example 17 in EP 23161417.3]
- CACO2 Perm. (CACO-2 cells): 2.5 10^−6 cm/sec

SMILES: Cn1cnnc1C1(F)CCN(c2c(C#N)cc(F)cc2-c2cnc3nn(C(C)(C)C)c(C(F)(F)F)c3c2)CC1
- efflux ratio [3, 4]: 0.8
- CACO2 Perm. (CACO-2 cells): 51.0 10^−6 cm/sec

SMILES: Cn1cnnc1C1CCN(c2c(C#N)ccnc2-c2ccc(F)nc2)CC1 [Example 133 in WO 2024/020517]
- CACO2 Perm. (CACO-2 cells): 4.8 10^−6 cm/sec

SMILES: Cn1cnnc1C1(F)CCN(c2c(C#N)cc(Cl)cc2-c2cnc3nn(C(C)(C)C)cc3c2)CC1 [Example 19 in EP 23161417.3]
- CACO2 Perm. (CACO-2 cells): 18.0 10^−6 cm/sec

SMILES: Cn1cnnc1C1CCN(c2c(C#N)cccc2-c2cnc3nn(C(C)(C)C)cc3c2)CC1 [Example 50 in EP 22216126.7]
- CACO2 Perm. (CACO-2 cells): 0.5 10^−6 cm/sec

SMILES: Cn1cnnc1C1(F)CCN(c2c(C#N)cc(C(F)(F)F)nc2-c2cnc3nn(C(C)(C)C)c(C(F)(F)F)c3c2)CC1 [Example 4 in EP 23189886.7]
- efflux ratio [3, 4]: 0.6
- CACO2 Perm. (CACO-2 cells): 99.5 10^−6 cm/sec
